Assay results from US20030215930A1, “Genes involved in cyclododecanone degradation pathway” (priority 2002, published 2003).

Experiments:
[1] = test system: monooxygenase and esterase on the S8C; test: Production of different chain length hydroxy acids from cyclic ketones by recombinant E. coli cosmid clone S8C (GC/MS); type: cell-based, Escherichia coli; conditions: cyclic ketone substrate at 250 mg/L
Method: Transformed XL1-Blue MR cells were grown in M9 medium with 0.4% glucose as sole carbon source. Substrate for conversion was added at early log phase (OD=0.2) and cells were allowed to grow at 30° C. for 20 additional hours. Cells were then frozen and thawed once, centrifiged, and supernatant was filtered through 0.2 μm filters. Filtrate was prepared for GC/MS analysis as described below.
Filtrate was first acidified to pH 2 using concentrated HCl. The acidified sample was extracted twice with methylene chloride or ethyl acetate. The extracts were combined and dried by adding anhydrous magnesium sulfate. Magnesium sulfate was then removed by filteration using Whatman 3MM filter paper and the remaining solvent in the filtrate was evaporated under a gentle stream of nitrogen. […]
Example 8 explores whether the cyclic substrates could be expanded to cyclic ketones of different chain length and whether corresponding hydroxy acids could be produced. […] Large amount of corresponding hydroxy acids were detected from S8C grown in the presence of C11, C12 and C13 cyclic ketones. Medium level of 15-hydroxy acid was detected from C15 cyclic ketone grown cells. Small amount of hydroxy acids was detected from cells grown on C6 and C10 cyclic ketones. […]

Rhodococcus ruber SC1 = test: Growth of Rhodococcus ruber SC1 on cyclic ketones as sole carbon and energy source; type: cell-based; conditions: cyclic ketone as sole carbon and energy source
Method: Synthetic S12 medium was used to establish enrichment. S12 medium contains the following: 10 mM ammonium sulfate, 50 mM potassium phosphate buffer (pH 7.0), 2 mM MgCl2, 0.7 mM CaCl2, 50 μM MnCl2, 1 μM FeCl3, 1 μM […], 1.72 μM CuSO4, 2.53 μM CoCl2, 2.42 μM […], and 0.0001% FeSO4. The carbon sources were added directly to the S12 medium and the bacteria were grown in sealed culture flasks.
S12 agar was used to test isolates that utilize compounds as the sole source of carbon and energy. S12 agar was prepared by adding 1.5% Noble agar (DIFCO) to S12 medium. Bacteria growing on S12 agar were supplied with volatile compounds such as cyclododecanone by sprinkling solids of the volatile compound on the interior of the petri dish lid or 5 μl of other volatile liquid as vapor. The petri dish was sealed with parafilm and incubated with the lid on the bottom.
Rhodococcus ruber SC1 isolated from cyclododecanone (C12 cyclic ketone) enrichment culture was also tested for growth on cyclic ketones of different carbon numbers as sole carbon and energy source (Table 3). It grows well on cyclopentadecanone (C15 cyclic ketone), cyclotridecanone (C13 cyclic ketone), cyclododecanone (C12 cyclic ketone) and cycloundecanone (C11 cyclic ketone).

Compound	Corresponding Hydroxy Acid Produced by E. coli Cosmids [1]	Growth of Rhodococcus ruber SC1 (Rhodococcus ruber SC1)
O=C1CCCCC1 [C6, cyclohexanone]	Small amount	does not grow
O=C1CCCCCC1 [C7, cycloheptanone]		does not grow
O=C1CCCCCCC1 [C8, cyclooctanone]		does not grow
O=C1CCCCCCCCC1 [C10, cyclodecanone]	Small amount	grows moderately well
O=C1CCCCCCCCCC1 [C11, cycloundecanone]		grows well
O=C1CCCCCCCCCCC1 [C12, cyclododecanone]		grows well
O=C1CCCCCCCCCCCC1 [C13, cyclotridecanone]		grows well
O=C1CCCCCCCCCCCCCC1 [C15, cyclopentadecanone]		grows well
